According to article PMC9779606, “Synthesis, Structural Characterization and Biological Activity Evaluation of Novel Cu(II) Complexes with 3-(trifluoromethyl)phenylthiourea Derivatives” (International Journal of Molecular Sciences, 2022):

Columns and labels:
[1] = test system: P. aeruginosa ATCC 15442; test: MIC, twofold serial microdilution, standard strains; details: P. aeruginosa ATCC 15442, standard strain
[2] = test system: M. tuberculosis H37Rv; test: Tuberculostatic activity, Microplate Alamar Blue Assay (MABA); type: cell-based, Mycobacterium tuberculosis; details: M. tuberculosis H37Rv, standard strain, MABA
[3] = test system: S. epidermidis 438; test: MIC, hospital methicillin-resistant strains (MRSE); details: hospital MRSE strain S. epidermidis 438
[4] = test system: C. parapsilosis ATCC 22019; test: MIC, twofold serial microdilution, standard fungal strains; details: C. parapsilosis ATCC 22019, standard strain
[5] = test system: M. tuberculosis Spec. 192; test: Tuberculostatic activity, Microplate Alamar Blue Assay (MABA); type: cell-based, Mycobacterium tuberculosis; details: M. tuberculosis Spec. 192, patient isolate fully sensitive to tuberculostatics, MABA
[6] = test system: S. aureus 522; test: MIC, hospital methicillin-resistant strains (MRSA); details: hospital MRSA strain S. aureus 522
[7] = test system: C. albicans ATCC 10231; test: MIC, twofold serial microdilution, standard fungal strains; details: C. albicans ATCC 10231, standard strain
[8] = test system: S. aureus 586; test: MIC, hospital methicillin-resistant strains (MRSA); details: hospital MRSA strain S. aureus 586
[9] = test system: S. epidermidis 471; test: MIC, hospital methicillin-resistant strains (MRSE); details: hospital MRSE strain S. epidermidis 471
[10] = test system: S. epidermidis 436; test: MIC, hospital methicillin-resistant strains (MRSE); details: hospital MRSE strain S. epidermidis 436
[11] = test system: E. coli NCTC 10538; test: MIC, twofold serial microdilution, standard strains; details: E. coli NCTC 10538, standard strain
[12] = test system: C. albicans ATCC 90028; test: MIC, twofold serial microdilution, standard fungal strains; details: C. albicans ATCC 90028, standard strain
[13] = test system: S. epidermidis 420; test: MIC, hospital methicillin-resistant strains (MRSE); details: hospital MRSE strain S. epidermidis 420
[14] = test system: S. epidermidis ATCC 35984; test: MIC, twofold serial microdilution, standard strains; details: S. epidermidis ATCC 35984, standard strain
[15] = test system: S. epidermidis 423; test: MIC, hospital methicillin-resistant strains (MRSE); details: hospital MRSE strain S. epidermidis 423
[16] = test system: Bacillus subtilis M45 (rec−); details: B. subtilis M45 (rec−); 256 µg per 9 mm disc (NOQ 2 µg per disc)
Protocol: (§1) DNA-damaging activity of compounds was tested by rec-assay using two genetically modified Bacillus subtilis strains: M45 (rec^−) and H17 (rec^+). Tested compounds were dissolved in DMSO, and 10 µL of each solution was dripped onto sterile cotton discs (Rotilabo) to load 256 µg of a given compound per 9 mm disc. Discs were placed on the surface Nutrient agar plates (Difco) inoculated with 100 µL of bacterial overnight culture and incubated for 24 h at 35 °C. After incubation, the growth inhibition zones were measured. […] Results of the genotoxicity test were estimated after 18 h of incubation at 35 °C by comparing the diameter of the inhibition zone on the B. subtilis M45 (rec^−) strain with that on the B. subtilis H17 (rec^+) strain.

[17] = test system: Bacillus subtilis H17 (rec+); details: B. subtilis H17 (rec+); 256 µg per 9 mm disc (NOQ 2 µg per disc)
Protocol: as §1

[18] = test system: S. epidermidis ATCC 12228; test: MIC, twofold serial microdilution, standard strains; details: S. epidermidis ATCC 12228, standard strain
[19] = test system: S. aureus ATCC 29213; test: as above; details: S. aureus ATCC 29213, standard strain
[20] = test system: S. epidermidis 510; test: MIC, hospital methicillin-resistant strains (MRSE); details: hospital MRSE strain S. epidermidis 510
[21] = test system: S. aureus 573; test: MIC, hospital methicillin-resistant strains (MRSA); details: hospital MRSA strain S. aureus 573
[22] = test system: methicillin-resistant Staphylococci (MRSA, MRSE); details: all hospital staphylococcal strains, Table 5
[23] = test system: S. aureus 568; test: MIC, hospital methicillin-resistant strains (MRSA); details: hospital MRSA strain S. aureus 568
[24] = test system: P. aeruginosa ATCC 27853; test: MIC, twofold serial microdilution, standard strains; details: P. aeruginosa ATCC 27853, standard strain
[25] = test system: S. epidermidis 435; test: MIC, hospital methicillin-resistant strains (MRSE); details: hospital MRSE strain S. epidermidis 435
[26] = test system: S. aureus 567; test: MIC, hospital methicillin-resistant strains (MRSA); details: hospital MRSA strain S. aureus 567
[27] = test system: S. aureus 572; test: MIC, hospital methicillin-resistant strains (MRSA); details: hospital MRSA strain S. aureus 572
[28] = test system: S. epidermidis 513; test: MIC, hospital methicillin-resistant strains (MRSE); details: hospital MRSE strain S. epidermidis 513
[29] = test system: S. aureus 481; test: MIC, hospital methicillin-resistant strains (MRSA); details: hospital MRSA strain S. aureus 481
[30] = test system: S. aureus 537; test: MIC, hospital methicillin-resistant strains (MRSA); details: hospital MRSA strain S. aureus 537
[31] = test system: S. epidermidis 432; test: MIC, hospital methicillin-resistant strains (MRSE); details: hospital MRSE strain S. epidermidis 432

Row | Structure (SMILES) | MIC [1] [µg/mL] | MIC [2] [µg/mL] | MIC [3] [µg/mL] | MIC [4] [µg/mL] | MIC [5] [µg/mL] | MIC [6] [µg/mL] | MIC [7] [µg/mL] | MIC [8] [µg/mL] | MIC [9] [µg/mL] | MIC [10] [µg/mL] | MIC [11] [µg/mL] | MIC [12] [µg/mL] | MIC [13] [µg/mL] | MIC [14] [µg/mL] | MIC [15] [µg/mL] | Genotoxic activity, inhibition zone diameter, M45 [16] [mm] | Genotoxic activity, inhibition zone diameter, H17 [17] [mm] | MIC [18] [µg/mL] | MIC [19] [µg/mL] | MIC [20] [µg/mL] | other results
1 | FC(F)(F)c1cccc([N-]C(=S)Nc2cccc(Br)c2)c1.FC(F)(F)c1cccc([N-]C(=S)Nc2cccc(Br)c2)c1.[Cu+2] [Cu4, Copper(II) Complex with 1-(3-bromophenyl)-3-[3-(trifluoromethyl)phenyl] thiourea] | ≥256 | 4 | 8 | ≥256 | 4 | 8 | ≥256 | 8 | 8 | 8 | 128 | ≥256 | 8 | 8 | 8 | 17 | 15 | 8 | 8 | 8 | MIC [21]: 8 µg/mL; MIC level against hospital staphylococcal strains [22]: 8 to 128 µg/mL; MIC [23]: 8 µg/mL; MIC [24]: 128 µg/mL; MIC [25]: 8 µg/mL; MIC [26]: 8 µg/mL; MIC [27]: 8 µg/mL; MIC [28]: 8 µg/mL; MIC [29]: 8 µg/mL; MIC [30]: 8 µg/mL; MIC [31]: 8 µg/mL
2 | FC(F)(F)c1cccc([N-]C(=S)NCc2ccccc2)c1.FC(F)(F)c1cccc([N-]C(=S)NCc2ccccc2)c1.[Cu+2] [Cu3, Copper(II) Complex with 1-benzyl-3-[3-(trifluoromethyl)phenyl]thiourea] | ≥256 | 16 | 64 | 32 | 16 | 64 | 32 | 64 | 64 | 64 | ≥256 | 32 | 64 | 64 | 64 | 15 | 15 | 64 | 64 | 64 | MIC [21]: 64 µg/mL; MIC level against hospital staphylococcal strains [22]: 8 to 128 µg/mL; MIC [23]: 64 µg/mL; MIC [24]: ≥256 µg/mL; MIC [25]: 64 µg/mL; MIC [26]: 64 µg/mL; MIC [27]: 64 µg/mL; MIC [28]: 64 µg/mL; MIC [29]: 64 µg/mL; MIC [30]: 64 µg/mL; MIC [31]: 64 µg/mL
3 | CC(NC(=S)[N-]c1cccc(C(F)(F)F)c1)c1ccccc1.CC(NC(=S)[N-]c1cccc(C(F)(F)F)c1)c1ccccc1.[Cu+2] (racemic) [Cu2, Copper(II) Complex with 1-(1-phenylethyl)-3-[3-(trifluoromethyl)phenyl]thiourea] | 128 | 8 | 16 | 128 | 8 | 16 | 128 | 8 | 16 | 16 | ≥256 | 128 | 16 | 16 | 16 | 16 | 16 | 32 | 32 | 16 | MIC [21]: 8 µg/mL; MIC level against hospital staphylococcal strains [22]: 8 to 128 µg/mL; MIC [23]: 8 µg/mL; MIC [24]: ≥256 µg/mL; MIC [25]: 16 µg/mL; MIC [26]: 8 µg/mL; MIC [27]: 16 µg/mL; MIC [28]: 16 µg/mL; MIC [29]: 16 µg/mL; MIC [30]: 8 µg/mL; MIC [31]: 16 µg/mL
4 | FC(F)(F)c1cccc([N-]C(=S)NCCc2ccccc2)c1.FC(F)(F)c1cccc([N-]C(=S)NCCc2ccccc2)c1.O.[Cu+2] [Cu1, Copper(II) Complex with 1-(2-phenylethyl)-3-[3-(trifluoromethyl)phenyl]thiourea] | 128 | 16 | 128 | 64 | 16 | 64 | 128 | 64 | 64 | 128 | ≥256 | 128 | 64 | 64 | 64 | 16 | 16 | 64 | 64 | 64 | MIC [21]: 64 µg/mL; MIC level against hospital staphylococcal strains [22]: 8 to 128 µg/mL; MIC [23]: 64 µg/mL; MIC [24]: 128 µg/mL; MIC [25]: 64 µg/mL; MIC [26]: 64 µg/mL; MIC [27]: 64 µg/mL; MIC [28]: 64 µg/mL; MIC [29]: 64 µg/mL; MIC [30]: 64 µg/mL; MIC [31]: 64 µg/mL
